Laboratory results: patent US8242166B2, “C(10) ethyl ester and C(10) cyclopropyl ester substituted taxanes” (Florida State University Research Foundation, Inc., priority 2008, dated 2012)
Several values for one entry are separate records, joined by “and”; a condition that tells them apart may be missing. Equal values may be shown once. Read-outs that look alike come from different tables or passages of the source.

Columns and labels:
PANC-1 = assay: MTT cytotoxicity (IC50), PANC-1; format: cell-based; settings: Homo sapiens, 72 h, read-out: IN Vitro IC50 (nm) Panc
Protocol: (§1) Compound 17932 was tested in four of these cell lines, while the remaining compounds were tested in all of these cell lines. All cell lines were maintained in RPMI-1640 tissue culture medium (TCM, supplemented with antibiotics and 10% fetal bovine serum) and cultured at 37° C. in humidified air containing 5% CO2. To assess the antiproliferative effects of the test compounds, 172 μL of tumor cell suspension (1.45×10^4 cells/ml) were added to each well of a 96-well plate and incubated for 24 h at 37° C. in 5% CO2 in air to allow cells to adhere. Seven 2-fold drug dilutions in TCM/DMSO were performed in triplicate in separate 96-well plates and 28 μL was transferred to the wells containing tumor cells (200 μL final volume/0.1% DMSO). Plates were incubated for 72 h and cell viability was determined by adding 50 μL of warm TCM containing 5 mg/mL MTT (3-[4,5-dimethylthiazol-2-yl]-2,5-diphenyltetrazolium bromide) to each well and incubating for 1 h at 37° C. Plates were processed and the absorbances of the resulting solutions were measured by a plate reader at 570 nm. […] (GraphPad Prism version 4.00 for Windows). Studies were conducted by Taxolog, Inc., Tallahassee, Fla.

A375 = assay: MTT cytotoxicity (IC50), A375; format: cell-based; settings: Homo sapiens, A-375
Protocol: as §1

A549 = assay: MTT cytotoxicity (IC50), A549; format: cell-based; settings: Homo sapiens, 72 h, read-out: IN Vitro IC50 (nm) A549
Protocol: as §1

MALME-3 = assay: MTT cytotoxicity (IC50), MALME-3; format: cell-based; settings: Homo sapiens, 72 h, read-out: IN Vitro IC50 (nm) Malme3
Protocol: as §1

OVCAR5 = assay: MTT cytotoxicity (IC50), OVCAR5; format: cell-based; settings: Homo sapiens, OVCAR-5, 72 h, read-out: IN Vitro IC50 (nm) OVCAR5
Protocol: as §1

SK-MEL-28 = assay: MTT cytotoxicity (IC50), SK-MEL-28; format: cell-based; settings: Homo sapiens, 72 h, read-out: IN Vitro IC50 (nm) ske-mel28
Protocol: as §1

BxPC-3 cancer cell line = assay: MTT cytotoxicity (IC50), BxPC-3 (Oncodesign); format: cell-based; settings: Homo sapiens
Protocol: BxPC-3 cancer cell line (Source ATCC) and culture medium were purchased and provided by Oncodesign (France).
Tumor cells (5,000 cells per well) were plated in 96-well flat-bottom microtitration plates (Ref 167008, Batch 083310, Nunc, Dutscher, Brumath, France) and incubated at 37° C. for 24 hours before treatment in 100 μl of drug-free RPMI 1640 medium supplemented with 10% FBS. Tumor cell lines were incubated for 72 hours with 10 concentrations of both test substances and TXT (40 to 0.07 nM using ½ step dilutions). Experiments were repeated three times, each assay being issued from quadruplicate. Control cells were treated with the vehicle alone. At the end of treatments, the cytotoxic activity was evaluated by a MTT assay. These studies were conducted at Oncodesign, France.

[1] = tested on: HT29 human tumor xenografts; assay: HT29 xenograft study e139 (Example 23); format: in vivo, nude mice; settings: for Number of Death NTR / Number of Death TR: N=6
[2] = tested on: HT29 human tumor xenografts; assay: HT29 xenograft study e210, oral and i.v. (Example 25); settings: for CR (complete regression) / NTR NTRa/u / NTR NTRm / PR (partial regression) / TFS (tumor-free survivor) / TR (treatment-related death): n=6; for activity in the HT29 xenograft tumor model: every four day schedule for four doses
Source text: The formulation for oral studies was an ethanol and Cremophor formulation while the formulation for compound 18365 and compound 19244 dosed i.v. was 5% ethanol and 95% Liposyn II 20%.

[3] = tested on: human BxPC-3 human pancreatic xenograft; format: in vivo; settings: for mean doubling time (DT) of tumors / time to reach volume (T to V) of 1,000 mm^3: repeated; for optimal T/C % value: at D53; for T/C % values: from D33; for antitumor activity: repeated IV injections at 5 and 7 mg/kg/inj
Protocol: Method: Twenty four (24) hours after a whole body irradiation with a γ-source (7.0 Gy, Co^60, INRA, Dijon, France) 20×10^6 BxPC-3 cells in 200 μl of RPMI 1640 culture medium were subcutaneously injected in the right flank of 8 female Nude rats to generate tumor material. When the tumor size reaches approximately 1,000 mm^3, the tumors were surgically excised for implantation into recipient Nude female rats. Twenty four (24) hours after a whole body irradiation (7.0 Gy, Co^60, INRA, Dijon, France), fresh BxPC-3 tumor fragments were sc implanted in the right flank of 52 Nude female rats (1 fragment/rat) at D0 using surgical pliers and skin was stitched. The antitumor activity study was started at D21 when the mean tumor volume has reached 321.6±131.2 mm^3. Before the start of treatments, 42 tumor bearing rats out of 52 grafted were randomized into 7 groups of 6 animals.
[…]. At 7 mg/kg/inj, only two treatments were performed at D21 and D42 due to severe body weight loss.

[4] = MTT, 72 h, read-out: IN Vitro IC50 (nm) A375
[5] = Resistance MRP9, read-out: A375 Melanoma (Table 4, quantity not named; IC50 values as Table 2)
[6] = BXPC-3, 72 h, Exp 1, MTT, 72 hours, read-out: IC50 (nM) BxPC-3
[7] = BXPC-3, 72 h, Exp 2, MTT, 72 hours, read-out: IC50 (nM) BxPC-3
[8] = BXPC-3, 72 h, Exp 3, MTT, 72 hours, read-out: IC50 (nM) BxPC-3
[9] = BXPC-3, mean of 3 experiments, read-out: IC50 Mean ± SD (nM) BxPC-3
[10] = 7 mg/kg/inj IV, after the first treatment

## CC(=O)O[C@@]12CO[C@@H]1C[C@H](O)[C@@]1(C)C(=O)[C@H](OC(=O)C3CC3)C3=C(C)[C@@H](OC(=O)[C@H](O)[C@@H](NC(=O)OC4CCC4)c4cccs4)C[C@@](O)([C@@H](OC(=O)c4ccccc4)C12)C3(C)C (some centres unmarked) [Compound 18365]
PANC-1
  IC50: 1200 pM
A375; [4]
  IC50: 600 pM
A375; [5]
  IC50: 600 pM
A549
  IC50: 500 pM
MALME-3
  IC50: 4100 pM
OVCAR5
  IC50: 300 pM
SK-MEL-28
  IC50: 900 pM
BxPC-3 cancer cell line; [6]
  IC50: 0.79 nM
BxPC-3 cancer cell line; [7]
  IC50: 1.07 nM
BxPC-3 cancer cell line; [8]
  IC50: 0.99 nM
BxPC-3 cancer cell line; [9]
  IC50: 0.95 ± 0.14 nM
[1]; 25 mg/kg i.v. q4d×4, six mice
  61-day survivors: five
  CR responses: 2
  PR responses: 4
[1]; 25 mg/kg iv q4d × 4
  Day 51 mm^3 (tumor size): 112.8 mm^3
  Day 54 mm^3 (tumor size): 124.7 mm^3
  Max. BW Loss %; Day: −17.1%; Day 16
  Number of Death NTR: 0
  Number of Death TR: 1
[2]; 25 mg/kg iv q4d × 4
  % TGD: 214.3%
  BW Nadir: −7.6% (16)
  MTV (n), Day 60: 5.00 (6) mm^3
  Median TTE: 60 days
  T-C: 40.91 days
  CR (complete regression): 4
  NTR NTRa/u: 0
  NTR NTRm: 0
  PR (partial regression): 2
  TFS (tumor-free survivor): 4
  TR (treatment-related death): 0
[2]; 50 mg/kg po q4d × 4
  % TGD: 214.3%
  BW Nadir: −7.6% (16)
  MTV (n), Day 60: 8.75 (6) mm^3
  Median TTE: 60 days
  T-C: 40.91 days
  CR (complete regression): 4
  NTR NTRa/u: 0
  NTR NTRm: 0
  PR (partial regression): 2
  TFS (tumor-free survivor): 3
  TR (treatment-related death): 0
[2]
  activity in the HT29 xenograft tumor model: oral and IV activity
[3]; 5 mg/kg
  wt loss: 16.9%
[3]; 5 mg/kg/inj
  tolerability of repeated IV treatments: not well tolerated
[3]; 5 mg/kg/inj IV
  mean doubling time (DT) of tumors: 24.7 ± 10.4 days
  time to reach volume (T to V) of 1,000 mm^3: 64.3 ± 16.3 days
  optimal T/C % value: 11.0%
  T/C % values: lower than 42%
[3]; 5 mg/kg/inj IV, at D33
  body weight loss: −16.9±6.1%
[3]; 5 mg/kg/inj IV, at D81 (final sacrifice), 6 rats per group
  animals with complete tumor regression: two
[3]; 7 mg/kg/inj
  tolerability of repeated IV treatments: not tolerated
[3]; 7 mg/kg/inj IV
  rats out of six alive at the end of the study: one
  optimal T/C % value: 13.2% and 8.9%
  T/C % values: lower than 42%
[3]; [10]
  MBWC D21-D26: −16.5±7.2%
[3]
  antitumor activity: marked antitumor activity

## CCC(=O)O[C@H]1C(=O)[C@@]2(C)C([C@H](OC(=O)c3ccccc3)[C@]3(O)C[C@H](OC(=O)[C@H](O)[C@@H](NC(=O)OC4CCCC4)c4cccs4)C(C)=C1C3(C)C)[C@]1(OC(C)=O)CO[C@@H]1C[C@@H]2O (some centres unmarked) [Compound 18926]
PANC-1
  IC50: 500 pM
A375; [4]
  IC50: 500 pM
A375; [5]
  IC50: 500 pM
A549
  IC50: 400 pM
MALME-3
  IC50: 1800 pM
OVCAR5
  IC50: 200 pM
SK-MEL-28
  IC50: 600 pM
[1]; 20 mg/kg i.v. q4d×4
  MTV (Day 61): 83 mm^3
[1]; 20 mg/kg i.v. q4d×4, six mice
  PR responses: 5
[1]; 20 mg/kg iv q4d × 4
  Day 51 mm^3 (tumor size): 142.3 mm^3
  Day 54 mm^3 (tumor size): 147 mm^3
  Max. BW Loss %; Day: −20.7%; Day 16
  Number of Death NTR: 0
  Number of Death TR: 0

## CCC(=O)O[C@H]1C(=O)[C@@]2(C)C([C@H](OC(=O)c3ccccc3)[C@]3(O)C[C@H](OC(=O)[C@H](O)[C@@H](NC(=O)OC4CCC4)c4cccs4)C(C)=C1C3(C)C)[C@]1(OC(C)=O)CO[C@@H]1C[C@@H]2O (some centres unmarked) [Compound 19244]
PANC-1
  IC50: 1200 pM
A375; [4]
  IC50: 600 pM
A375; [5]
  IC50: 500 pM
A549
  IC50: 500 pM
MALME-3
  IC50: 1100 pM
OVCAR5
  IC50: 600 pM
SK-MEL-28
  IC50: 2000 pM
BxPC-3 cancer cell line; [6]
  IC50: 0.53 nM
BxPC-3 cancer cell line; [7]
  IC50: 0.66 nM
BxPC-3 cancer cell line; [8]
  IC50: 1.03 nM
BxPC-3 cancer cell line; [9]
  IC50: 0.74 ± 0.26 nM
[2]; 30 mg/kg iv q4d × 4
  % TGD: 214.3%
  BW Nadir: 11.1% (16)
  MTV (n), Day 60: 36.00 (6) mm^3
  Median TTE: 60 days
  T-C: 40.91 days
  CR (complete regression): 1
  NTR NTRa/u: 0
  NTR NTRm: 0
  PR (partial regression): 5
  TFS (tumor-free survivor): 1
  TR (treatment-related death): 0
[2]; 60 mg/kg po q4d × 4
  % TGD: 214.3%
  BW Nadir: −8.5% (16)
  MTV (n), Day 60: 0.25 (6) mm^3
  Median TTE: 60 days
  T-C: 40.91 days
  CR (complete regression): 4
  NTR NTRa/u: 0
  NTR NTRm: 0
  PR (partial regression): 2
  TFS (tumor-free survivor): 4
  TR (treatment-related death): 0
[2]
  activity in the HT29 xenograft tumor model: oral and IV activity
[3]; 5 mg/kg/inj
  tolerability of repeated IV treatments: well tolerated
[3]; 5 mg/kg/inj IV
  mean doubling time (DT) of tumors: 19.3 ± 6.5 days
  time to reach volume (T to V) of 1,000 mm^3: 46.0 ± 11.6 days
  optimal T/C % value: 27.7%
[3]; 5 mg/kg/inj IV, after the first injection
  MBWC D21-D26: −15.9±5.6%
[3]; 7 mg/kg/inj
  tolerability of repeated IV treatments: not tolerated
[3]; 7 mg/kg/inj IV
  rats out of six alive at the end of the study: two
[3]; [10]
  MBWC D21-D26: −20.1±5.7%
[3]
  antitumor activity: marked antitumor activity
